This experiment deals with PDE4. The experiment is described as follows: Evaluation of PDE4 inhibitory activity, scintillation proximity assay. The class given is biochemical. As to conditions: scintillation proximity assay; class symbols of Evaluation 1; read-out: PDE4 Inhibitory Activity (concentration for the inhibition rate of 50%, IC50), Evaluation 1. Summed up:
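SPA with [2,8-3H]-cAMP and diluted PDE4 enzyme preparation in 50 mM Tris-HCl pH 7.4, 8.3 mM MgCl2, 1.7 mM EGTA, 3 mg/mL BSA, 120 min at room temperature. Product captured on ZnSO4-containing YSi-SPA beads, scintillation counted; IC50 from inhibition curves vs DMSO control and no-enzyme blank.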

Take `OC(c1cc(-c2nccs2)c2oc(N3CC4CC(C3)N4)nc2c1)C(F)(F)F` (stereo not drawn) [Example 135, 1-(2-(3,6-Diazabicyclo[3.1.1]heptan-3-yl)-7-(thiazol-2-yl)benzo[d]oxazol-5-yl)-2,2,2-trifluoroethan-1-ol]: the IC50 was < 100 nM. In the case of `OC(c1cc(-c2nccs2)c2oc(N3CC4CCCC(C3)N4)nc2c1)C(F)(F)F` (stereo not drawn) [Example 136, 1-(2-(3,9-Diazabicyclo[3.3.1]nonan-3-yl)-7-(thiazol-2-yl)benzo[d]oxazol-5-yl)-2,2,2-trifluoroethan-1-ol], the IC50 was < 100 nM. Take `OC(c1cc(-c2nccs2)c2oc(N3CC4CCC(C3)N4)nc2c1)C(F)(F)F` (stereo not drawn) [Example 138, 1-(2-(3,8-Diazabicyclo[3.2.1]octan-3-yl)-7-(thiazol-2-yl)benzo[d]oxazol-5-yl)-2,2,2-trifluoroethan-1-ol]: the IC50 is < 100 nM. On to `OC(c1cc(-c2nccs2)c2oc(N3CC4CCC(C3)N4)nc2c1)C(F)(F)F` (stereo not drawn) [Example 139, 1-(2-(3,8-Diazabicyclo[3.2.1]octan-3-yl)-7-(thiazol-2-yl)benzo[d]oxazol-5-yl)-2,2,2-trifluoroethan-1-ol], for which the IC50 is < 100 nM. Consider `OC(c1cc(-n2cccn2)c2oc(N3CC4CCC(C3)N4)nc2c1)C(F)(F)F` (stereo not drawn) [Example 140, 1-(2-(3,8-Diazabicyclo[3.2.1]octan-3-yl)-7-(1H-pyrazol-1-yl)benzo[d]oxazol-5-yl)-2,2,2-trifluoroethan-1-ol], for which the IC50 is < 100 nM. As to `CC(=O)OC(c1cc(-c2nccs2)c2oc(N3CC4CCC(C3)N4)nc2c1)C(F)(F)F` (stereo not drawn) [Example 141, 1-(2-(3,8-Diazabicyclo[3.2.1]octan-3-yl)-7-(thiazol-2-yl)benzo[d]oxazol-5-yl)-2,2,2-trifluoroethyl acetate], the IC50 was < 100 nM. Turning to `COC(c1cc(-c2nccs2)c2oc(N3CC4CCC(C3)N4)nc2c1)C(F)(F)F` (stereo not drawn) [Example 142, 2-(3,8-Diazabicyclo[3.2.1]octan-3-yl)-7-(thiazol-2-yl)-5-(2,2,2-trifluoro-1-methoxyethyl)benzo[d]oxazole], the IC50 is < 100 nM. In the case of `COC(c1cc(-c2nccs2)c2oc(N3CC4CCC(C3)N4)nc2c1)C(F)(F)F` (stereo not drawn) [Example 143, 2-(3,8-Diazabicyclo[3.2.1]octan-3-yl)-7-(thiazol-2-yl)-5-(2,2,2-trifluoro-1-methoxyethyl)benzo[d]oxazole], the IC50 is < 100 nM. The figure for `COC(c1cc(-c2nccs2)c2oc(N3CC4CC(C3)N4)nc2c1)C(F)(F)F` (stereo not drawn) [Example 144, 2-(3,6-Diazabicyclo[3.1.1]heptan-3-yl)-7-(thiazol-2-yl)-5-(2,2,2-trifluoro-1-methoxyethyl)benzo[d]oxazole] is < 100 nM; for `COC(c1cc(-c2nccs2)c2oc(N3CC4CCCC(C3)N4)nc2c1)C(F)(F)F` (stereo not drawn) [Example 145, 2-(3,9-Diazabicyclo[3.3.1]nonan-3-yl)-7-(thiazol-2-yl)-5-(2,2,2-trifluoro-1-methoxyethyl)benzo[d]oxazole] it is < 100 nM.

Regarding `FC(F)(F)COC(c1cc(-c2nccs2)c2oc(N3CC4CCC(C3)N4)nc2c1)C(F)(F)F` (stereo not drawn) [Example 146, 2-(3,8-Diazabicyclo[3.2.1]octan-3-yl)-7-(thiazol-2-yl)-5-(2,2,2-trifluoro-1-(2,2,2-trifluoroethoxy)ethyl)benzo[d]oxazole], the IC50 was < 100 nM. In the case of `COCCOC(c1cc(-c2nccs2)c2oc(N3CC4CCC(C3)N4)nc2c1)C(F)(F)F` (stereo not drawn) [Example 147, 2-(3,8-Diazabicyclo[3.2.1]octan-3-yl)-7-(thiazol-2-yl)-5-(2,2,2-trifluoro-1-(2-methoxyethoxy)ethyl)benzo[d]oxazole], the IC50 was < 100 nM. Consider `CCOC(c1cc(-c2nccs2)c2oc(N3CC4CCC(C3)N4)nc2c1)C(F)(F)F` (stereo not drawn) [Example 148, 2-(3,8-Diazabicyclo[3.2.1]octan-3-yl)-5-(1-ethoxy-2,2,2-trifluoroethyl)-7-(thiazol-2-yl)benzo[d]oxazole], for which the IC50 was < 100 nM. Turning to `OCCOC(c1cc(-c2nccs2)c2oc(N3CC4CCC(C3)N4)nc2c1)C(F)(F)F` (stereo not drawn) [Example 149, 2-(1-(2-(3,8-Diazabicyclo[3.2.1]octan-3-yl)-7-(thiazol-2-yl)benzo[d]oxazol-5-yl)-2,2,2-trifluoroethoxy)ethan-1-ol], the IC50 was < 100 nM. Consider `CCOC(c1cc(-c2nccs2)c2oc(N3CC4CC(C3)N4)nc2c1)C(F)(F)F` (stereo not drawn) [Example 150, 2-(3,6-Diazabicyclo[3.1.1]heptan-3-yl)-5-(1-ethoxy-2,2,2-trifluoroethyl)-7-(thiazol-2-yl)benzo[d]oxazole], for which the IC50 was < 100 nM. Regarding `FC(F)(F)COC(c1cc(-c2nccs2)c2oc(N3CC4CC(C3)N4)nc2c1)C(F)(F)F` (stereo not drawn) [Example 151, 2-(3,6-Diazabicyclo[3.1.1]heptan-3-yl)-7-(thiazol-2-yl)-5-(2,2,2-trifluoro-1-(2,2,2-trifluoroethoxy)ethyl)benzo[d]oxazole], the IC50 is < 100 nM. For the compound `N#CCOC(c1cc(-c2nccs2)c2oc(N3CC4CC(C3)N4)nc2c1)C(F)(F)F` (stereo not drawn) [Example 152, 2-(1-(2-(3,6-Diazabicyclo[3.1.1]heptan-3-yl)-7-(thiazol-2-yl)benzo[d]oxazol-5-yl)-2,2,2-trifluoroethoxy)acetonitrile], the IC50 was < 100 nM. The same measure for `N#CCOC(c1cc(-c2nccs2)c2oc(N3CC4CCC(C3)N4)nc2c1)C(F)(F)F` (stereo not drawn) [Example 153, 2-(1-(2-(3,8-Diazabicyclo[3.2.1]octan-3-yl)-7-(thiazol-2-yl)benzo[d]oxazol-5-yl)-2,2,2-trifluoroethoxy)acetonitrile]: < 100 nM; for `COCCOC(c1cc(-c2nccs2)c2oc(N3CC4CC(C3)N4)nc2c1)C(F)(F)F` (stereo not drawn) [Example 154, 2-(3,6-Diazabicyclo[3.1.1]heptan-3-yl)-7-(thiazol-2-yl)-5-(2,2,2-trifluoro-1-(2-methoxyethoxy)ethyl)benzo[d]oxazole]: < 100 nM. Consider `CC(O)COC(c1cc(-c2nccs2)c2oc(N3CC4CCC(C3)N4)nc2c1)C(F)(F)F` (stereo not drawn) [Example 155, 1-(1-(2-(3,8-Diazabicyclo[3.2.1]octan-3-yl)-7-(thiazol-2-yl)benzo[d]oxazol-5-yl)-2,2,2-trifluoroethoxy)propan-2-ol], for which the IC50 was < 100 nM. For the compound `OC(O)(c1cc(-c2nccs2)c2oc(N3CC4CCCC(C3)N4)nc2c1)C(F)(F)F` [Example 156, 1-(2-(3,9-Diazabicyclo[3.3.1]nonan-3-yl)-7-(thiazol-2-yl)benzo[d]oxazol-5-yl)-2,2,2-trifluoroethane-1,1-diol], the IC50 was < 100 nM. On to `OC(O)(c1cc(-c2nccs2)c2oc(N3CC4CCC(C3)N4)nc2c1)C(F)(F)F` [Example 157, 1-(2-(3,8-Diazabicyclo[3.2.1]octan-3-yl)-7-(thiazol-2-yl)benzo[d]oxazol-5-yl)-2,2,2-trifluoroethane-1,1-diol], for which the IC50 is < 100 nM. In the case of `OC(O)(c1cc(-c2nccs2)c2oc(N3CC4CC(C3)N4)nc2c1)C(F)(F)F` [Example 158, 1-(2-(3,6-Diazabicyclo[3.1.1]heptan-3-yl)-7-(thiazol-2-yl)benzo[d]oxazol-5-yl)-2,2,2-trifluoroethane-1,1-diol], the IC50 was in the range of 100 to 1000 nM. For `CC(O)(c1cc(-c2nccs2)c2oc(N3CC4CCC(C3)N4)nc2c1)C(F)(F)F` (stereo not drawn) [Example 159, 2-(2-(3,8-Diazabicyclo[3.2.1]octan-3-yl)-7-(thiazol-2-yl)benzo[d]oxazol-5-yl)-1,1,1-trifluoropropan-2-ol], the IC50 was < 100 nM. With `CC(O)(c1cc(-c2nccs2)c2oc(N3CC4CC(C3)N4)nc2c1)C(F)(F)F` (stereo not drawn) [Example 160, 2-(2-(3,6-Diazabicyclo[3.1.1]heptan-3-yl)-7-(thiazol-2-yl)benzo[d]oxazol-5-yl)-1,1,1-trifluoropropan-2-ol], the IC50 was < 100 nM.

For the compound `CC(O)(c1cc(-c2nccs2)c2oc(N3CC4CCCC(C3)N4)nc2c1)C(F)(F)F` (stereo not drawn) [Example 161, 2-(2-(3,9-Diazabicyclo[3.3.1]nonan-3-yl)-7-(thiazol-2-yl)benzo[d]oxazol-5-yl)-1,1,1-trifluoropropan-2-ol], the IC50 was < 100 nM. In the case of `COC(C)(c1cc(-c2nccs2)c2oc(N3CC4CCCC(C3)N4)nc2c1)C(F)(F)F` (stereo not drawn) [Example 162], the IC50 is < 100 nM. As to `CCOC(=O)c1cc(-c2nccs2)c2oc(N3CC4CCC(C3)N4)nc2c1C(F)(F)F` [Example 163, Ethyl 2-(3,8-diazabicyclo[3.2.1]octan-3-yl)-7-(thiazol-2-yl)-4-(trifluoromethyl)benzo[d]oxazole-5-carboxylate], the IC50 was < 100 nM. For `CCOC(=O)c1cc(-c2nccs2)c2oc(N3CC4CCCC(C3)N4)nc2c1C(F)(F)F` [Example 164, Ethyl 2-(3,9-diazabicyclo[3.3.1]nonan-3-yl)-7-(thiazol-2-yl)-4-(trifluoromethyl)benzo[d]oxazole-5-carboxylate], the IC50 is < 100 nM. The same measure for `CCOC(=O)c1cc(-c2nccs2)c2oc(N3CC4CC(C3)N4)nc2c1C(F)(F)F` [Example 165, Ethyl 2-(3,6-diazabicyclo[3.1.1]heptan-3-yl)-7-(thiazol-2-yl)-4-(trifluoromethyl)benzo[d]oxazole-5-carboxylate]: < 100 nM; for `CC(C)(O)c1cc(-c2nccs2)c2oc(N3CC4CCCC(C3)N4)nc2c1C(F)(F)F` [Example 166, 2-(2-(3,9-Diazabicyclo[3.3.1]nonan-3-yl)-7-(thiazol-2-yl)-4-(trifluoromethyl)benzo[d]oxazol-5-yl)propan-2-ol]: < 100 nM; for `COCc1cc(-c2nccs2)c2oc(N3CC4CCC(C3)N4)nc2c1C(F)(F)F` [Example 167, 2-(3,8-Diazabicyclo[3.2.1]octan-3-yl)-5-(methoxymethyl)-7-(thiazol-2-yl)-4-(trifluoromethyl)benzo[d]oxazole]: < 100 nM. Regarding `c1csc(-c2cc(CN3CCOCC3)cc3nc(N4CC5CCC(C4)N5)oc23)n1` [Example 168, 2-(3,8-Diazabicyclo[3.2.1]octan-3-yl)-5-(morpholinomethyl)-7-(thiazol-2-yl)benzo[d]oxazole], the IC50 was < 100 nM.

The record behind these values is patent US12239643B2, “Therapeutic agent for inflammatory diseases, autoimmune diseases, fibrotic diseases, and cancer diseases” (MEIJI SEIKA PHARMA CO., LTD., priority 2018, dated 2025).
